Measurements from patent US8735425B2, “Tetrahydroisoquinoline derivative” (Daiichi Sankyo Company, Limited, priority 2008, dated 2014).

Columns and labels:
DGAT1 enzyme = biological target: T1, DGAT1 enzyme (Homo sapiens, UniProt O75907); experiment: DGAT1 inhibitory activity test; assay type: biochemical; conditions: test compound concentration of 0.05 μg/ml; read-out: Inhibitory Rate
T1 construct: made in house
T1 sequence (O75907 1-488): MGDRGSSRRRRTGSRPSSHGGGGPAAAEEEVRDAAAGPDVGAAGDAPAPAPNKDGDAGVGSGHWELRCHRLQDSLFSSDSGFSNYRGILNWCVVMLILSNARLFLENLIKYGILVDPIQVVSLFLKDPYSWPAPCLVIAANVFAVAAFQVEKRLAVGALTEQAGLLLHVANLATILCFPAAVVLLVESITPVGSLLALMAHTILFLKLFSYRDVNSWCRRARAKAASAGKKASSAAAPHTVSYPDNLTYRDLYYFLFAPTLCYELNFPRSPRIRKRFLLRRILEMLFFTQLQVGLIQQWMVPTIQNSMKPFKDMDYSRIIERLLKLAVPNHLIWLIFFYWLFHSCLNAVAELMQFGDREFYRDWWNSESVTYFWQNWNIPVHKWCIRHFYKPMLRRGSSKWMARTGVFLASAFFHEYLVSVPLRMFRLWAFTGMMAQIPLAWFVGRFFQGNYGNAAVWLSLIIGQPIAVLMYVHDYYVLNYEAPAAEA
Summary of the method: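 Reaction at 23° C for 30 min in 175 mM Tris-HCl pH 8.0, 8 mM MgCl2, 1 mg/ml BSA, 0.5% Triton X-100 with 0.3 mM 1,2-dioleoyl-sn-glycerol and 10 μM [14C]-oleoyl-CoA. Triglyceride extracted into heptane, separated by TLC, radioactivity quantified; % inhibition versus vehicle control, 0-min background subtracted.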

Male C57BL/6N mice = experiment: Triglyceride absorption suppression after fat loading (in vivo DGAT1 inhibitory effect); conditions: Mus musculus, po; dose of 10 mg/kg or lower, orally administered, mice fasted overnight, plasma triglyceride after fat loading; read-out: Triglyceride absorption suppressive activity
Summary of the method: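 Overnight-fasted male C57BL/6N mice dosed orally with compound (1 to 10 mg/kg in 0.5% methylcellulose), then given Pluronic-F127 1 g/kg i.p. and an oral 20% Intralipid load. Plasma triglyceride measured 1 to 4 h later. Absorption suppression (%) calculated against water-loaded and fat-loaded vehicle groups.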

CN(C(=O)N1CCc2cc(NC(=O)Nc3ccccc3F)ccc2C1)C1CCC(CC(=O)O)CC1 (centres unmarked) [Example 108, [4-({6-[3-(2-fluoro-phenyl)-ureido]-3,4-dihydro-1H-isoquinoline-2-carbonyl}-methyl-amino)-cyclohexyl]-acetic acid]
inhibition at 0.05 µg/mL (DGAT1 enzyme): ≥ 50% | inhibition in vivo at up to 10 mg/kg (Male C57BL/6N mice): ≥ 60%
